The source made the active and inactive calls. The calls are words filed in the database; no cut-off is given here.
Experiments:
[1] = biological target: T1, von Hippel-Lindau disease tumor suppressor/Histone-lysine N-methyltransferase, H3 lysine-79 specific (Homo sapiens, UniProt Q8TEK3+P40337); experiment: PROTAC activity at VHL/DOTIL in mixed-lineage leukemia rearranged (MLL-r) human THP-1 cells assessed as induction of DOT1L degradation by measuring fold change in DOTIL protein level at 0.3 uM incubated for 24 hrs by western blot analysis relative to control; type: cell-based
[2] = biological target: T1, von Hippel-Lindau disease tumor suppressor/Histone-lysine N-methyltransferase, H3 lysine-79 specific; experiment: PROTAC activity at VHL/DOT1L in mixed-lineage leukemia rearranged (MLL-r) human THP-1 cells assessed as induction of DOTIL degradation by measuring fold change in H3K79Me2 level at 3 uM incubated for 24 hrs by western blot analysis relative to control; type: cell-based
[3] = biological target: T1, von Hippel-Lindau disease tumor suppressor/Histone-lysine N-methyltransferase, H3 lysine-79 specific; experiment: PROTAC activity at VHL/DOT1L in mixed-lineage leukemia rearranged (MLL-r) human MV4-11 cells assessed as induction of DOTIL degradation by measuring fold change in DOT1L protein level at 3 uM incubated for 4 hrs by western blot analysis relative to control; type: cell-based
[4] = biological target: T1, von Hippel-Lindau disease tumor suppressor/Histone-lysine N-methyltransferase, H3 lysine-79 specific; experiment: PROTAC activity at VHL/DOT1L in mixed-lineage leukemia rearranged (MLL-r) human MV4-11 cells assessed as induction of DOTIL degradation by measuring fold change in H3K79Me2 level at 3 uM incubated for 8 hrs by western blot analysis relative to control; type: cell-based
[5] = biological target: T1, von Hippel-Lindau disease tumor suppressor/Histone-lysine N-methyltransferase, H3 lysine-79 specific; experiment: PROTAC activity against VHL/DOT1L in mixed-lineage leukemia rearranged (MLL-r) human THP-1 cells assessed as induction of DOT1L degradation at 3 uM preincubated with proteasome inhibitor, MG-132 for 1 hr followed by incubation with compound for 4 hrs by western blot analysis; type: cell-based
[6] = biological target: Histone-lysine N-methyltransferase, H3 lysine-79 specific (Homo sapiens) (UniProt Q8TEK3); experiment: Inhibition of human DOT1L using oligonucleosomes and SAM as substrate at 4.6 nM by radiometric Hotspot assay
[7] = biological target: T2, Histone-lysine N-methyltransferase EHMT1 (Homo sapiens) (UniProt Q9H9B1); experiment: Inhibition of human GLP using Histone H3 and SAM as substrate at 10 uM by radiometric Hotspot assay
T2 sequence (whole entry): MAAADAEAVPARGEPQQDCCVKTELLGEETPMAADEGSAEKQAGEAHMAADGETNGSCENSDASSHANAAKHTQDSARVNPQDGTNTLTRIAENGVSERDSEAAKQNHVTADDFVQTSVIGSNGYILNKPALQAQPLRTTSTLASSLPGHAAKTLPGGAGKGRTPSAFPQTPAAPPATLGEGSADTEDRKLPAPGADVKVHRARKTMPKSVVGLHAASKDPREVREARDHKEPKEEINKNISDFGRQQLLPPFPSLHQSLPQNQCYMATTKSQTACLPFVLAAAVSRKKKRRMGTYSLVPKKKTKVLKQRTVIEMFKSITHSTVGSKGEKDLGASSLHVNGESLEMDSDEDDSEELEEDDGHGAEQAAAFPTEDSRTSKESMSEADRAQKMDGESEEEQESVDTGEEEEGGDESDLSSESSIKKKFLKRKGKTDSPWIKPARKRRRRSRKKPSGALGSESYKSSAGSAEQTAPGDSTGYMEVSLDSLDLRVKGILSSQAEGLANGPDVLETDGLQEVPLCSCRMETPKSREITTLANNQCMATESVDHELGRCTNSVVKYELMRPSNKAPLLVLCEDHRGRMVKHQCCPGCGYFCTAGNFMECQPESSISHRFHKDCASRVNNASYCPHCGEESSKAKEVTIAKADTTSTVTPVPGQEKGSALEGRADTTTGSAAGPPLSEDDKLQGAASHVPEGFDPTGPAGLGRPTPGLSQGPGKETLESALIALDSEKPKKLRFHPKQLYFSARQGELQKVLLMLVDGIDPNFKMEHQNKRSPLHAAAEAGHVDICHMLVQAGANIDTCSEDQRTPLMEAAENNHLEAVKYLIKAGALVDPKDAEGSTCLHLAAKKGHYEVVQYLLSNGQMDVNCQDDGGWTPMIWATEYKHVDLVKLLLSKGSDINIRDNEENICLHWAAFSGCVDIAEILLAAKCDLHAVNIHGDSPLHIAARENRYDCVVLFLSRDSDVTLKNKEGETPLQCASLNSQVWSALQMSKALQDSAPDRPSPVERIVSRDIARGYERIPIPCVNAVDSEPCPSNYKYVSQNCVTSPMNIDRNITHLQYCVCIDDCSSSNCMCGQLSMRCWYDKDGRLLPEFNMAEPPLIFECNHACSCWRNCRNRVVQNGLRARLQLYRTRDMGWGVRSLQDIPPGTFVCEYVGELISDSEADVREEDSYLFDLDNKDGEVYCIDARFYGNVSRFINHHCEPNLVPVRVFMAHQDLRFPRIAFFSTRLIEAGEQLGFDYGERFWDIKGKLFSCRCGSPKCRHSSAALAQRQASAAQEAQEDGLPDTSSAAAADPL

[8] = biological target: T3, Histone-arginine methyltransferase CARM1 (Homo sapiens) (UniProt Q86X55); experiment: Inhibition of human PRMT4 using histone H3 and SAM as substrate at 10 uM by radiometric Hotspot assay
T3 sequence (whole entry): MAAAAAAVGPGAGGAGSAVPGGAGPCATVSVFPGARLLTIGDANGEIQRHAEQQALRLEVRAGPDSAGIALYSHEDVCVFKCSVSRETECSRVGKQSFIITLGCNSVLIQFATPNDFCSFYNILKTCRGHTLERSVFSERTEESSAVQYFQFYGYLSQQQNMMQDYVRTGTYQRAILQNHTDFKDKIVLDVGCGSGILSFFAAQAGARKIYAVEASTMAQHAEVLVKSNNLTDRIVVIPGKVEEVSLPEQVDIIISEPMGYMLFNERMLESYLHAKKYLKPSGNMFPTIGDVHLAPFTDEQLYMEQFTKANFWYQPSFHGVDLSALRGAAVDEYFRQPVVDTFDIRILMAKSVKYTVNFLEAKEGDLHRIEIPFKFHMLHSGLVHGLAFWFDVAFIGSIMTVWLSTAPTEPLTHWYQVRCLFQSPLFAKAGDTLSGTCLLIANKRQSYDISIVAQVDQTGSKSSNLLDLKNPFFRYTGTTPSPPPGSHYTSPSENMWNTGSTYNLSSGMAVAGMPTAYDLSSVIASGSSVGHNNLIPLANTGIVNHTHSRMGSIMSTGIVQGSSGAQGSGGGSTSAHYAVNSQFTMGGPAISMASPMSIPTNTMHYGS

[9] = test system: MV4-11; experiment: Antiproliferative activity against mixed-lineage leukemia rearranged (MLL-r) human MV4-11 cells assessed as inhibition of cell growth incubated for 7 days by CCK-8 assay; type: functional; conditions: MV4-11, 168 h, time 7 day
[10] = test system: MOLM-13; experiment: Antiproliferative activity against mixed-lineage leukemia rearranged (MLL-r) human MOLM-13 cells assessed as inhibition of cell growth incubated for 7 days by CCK-8 assay; type: functional, cell-based; conditions: time 7.0 day
[11] = test system: MCF-10A; experiment: Cytotoxicity against human MCF-10A cells assessed as inhibition of cell growth incubated for 7 days by CCK-8 assay; type: toxicity, cell-based; conditions: 168 h, time 7 day

T1 sequence (P40337 whole entry, looked up): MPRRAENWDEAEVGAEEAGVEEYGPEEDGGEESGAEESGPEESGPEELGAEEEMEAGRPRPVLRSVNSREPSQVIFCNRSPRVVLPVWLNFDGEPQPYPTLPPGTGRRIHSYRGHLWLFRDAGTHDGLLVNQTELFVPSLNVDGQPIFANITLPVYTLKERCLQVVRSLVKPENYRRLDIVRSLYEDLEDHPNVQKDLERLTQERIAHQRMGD
T1 sequence (Q8TEK3 whole entry, looked up): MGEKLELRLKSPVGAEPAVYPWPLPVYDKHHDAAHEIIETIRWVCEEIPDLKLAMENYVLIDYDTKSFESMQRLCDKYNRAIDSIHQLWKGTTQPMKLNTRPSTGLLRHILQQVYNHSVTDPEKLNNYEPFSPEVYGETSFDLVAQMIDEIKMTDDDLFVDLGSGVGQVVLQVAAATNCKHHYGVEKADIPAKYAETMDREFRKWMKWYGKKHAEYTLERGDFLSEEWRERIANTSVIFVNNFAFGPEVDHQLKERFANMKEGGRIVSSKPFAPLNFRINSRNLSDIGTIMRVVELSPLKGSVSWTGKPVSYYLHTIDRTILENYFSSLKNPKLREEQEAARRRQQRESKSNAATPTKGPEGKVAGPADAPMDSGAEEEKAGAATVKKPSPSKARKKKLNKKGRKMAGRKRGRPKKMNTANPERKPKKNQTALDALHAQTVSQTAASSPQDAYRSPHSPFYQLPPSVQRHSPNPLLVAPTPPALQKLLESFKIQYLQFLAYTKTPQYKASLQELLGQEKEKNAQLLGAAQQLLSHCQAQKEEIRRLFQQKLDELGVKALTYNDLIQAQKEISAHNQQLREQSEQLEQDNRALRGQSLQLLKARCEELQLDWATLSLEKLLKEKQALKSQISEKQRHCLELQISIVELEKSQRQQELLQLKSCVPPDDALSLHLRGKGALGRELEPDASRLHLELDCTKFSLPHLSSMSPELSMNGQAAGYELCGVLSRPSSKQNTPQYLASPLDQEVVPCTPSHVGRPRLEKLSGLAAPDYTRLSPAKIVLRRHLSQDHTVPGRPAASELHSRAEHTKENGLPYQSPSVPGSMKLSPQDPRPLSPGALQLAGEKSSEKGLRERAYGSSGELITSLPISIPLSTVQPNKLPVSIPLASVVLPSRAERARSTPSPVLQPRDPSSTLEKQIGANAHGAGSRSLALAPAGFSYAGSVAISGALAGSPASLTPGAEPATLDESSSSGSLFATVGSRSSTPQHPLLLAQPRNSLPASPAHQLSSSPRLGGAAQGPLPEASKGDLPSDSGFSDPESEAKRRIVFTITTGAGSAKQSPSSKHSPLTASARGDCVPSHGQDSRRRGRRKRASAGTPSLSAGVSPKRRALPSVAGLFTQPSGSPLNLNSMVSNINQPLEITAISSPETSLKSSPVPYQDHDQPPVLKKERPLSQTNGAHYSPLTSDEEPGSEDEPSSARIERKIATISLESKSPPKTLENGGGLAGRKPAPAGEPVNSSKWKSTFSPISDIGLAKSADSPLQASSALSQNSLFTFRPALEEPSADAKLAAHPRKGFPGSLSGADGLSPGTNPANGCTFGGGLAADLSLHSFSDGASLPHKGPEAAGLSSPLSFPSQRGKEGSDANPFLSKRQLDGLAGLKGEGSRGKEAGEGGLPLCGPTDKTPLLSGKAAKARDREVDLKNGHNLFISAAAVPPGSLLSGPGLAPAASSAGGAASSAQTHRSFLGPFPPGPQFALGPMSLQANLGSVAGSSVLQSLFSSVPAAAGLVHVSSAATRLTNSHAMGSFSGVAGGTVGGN
Histone-lysine N-methyltransferase, H3 lysine-79 specific (Homo sapiens), sequence (Q8TEK3 whole entry, looked up): as above

- fold change (FC) [1]: 0.08
- fold change (FC) [2]: 0.29
- fold change (FC) [3]: 0.27
- fold change (FC) [4]: 0.42
- Activity [5]: inactive
- inhibition [6]: > 95%
- inhibition [7]: inactive
- inhibition [8]: inactive
- GI50 [9]: 212 nM
SMILES: Cc1ncsc1-c1ccc([C@H](CC(=O)NCCCCCCNC(=O)COc2nc(N)nc(Nc3cc(S(N)(=O)=O)ccc3N[C@@H](c3cccc4c3OC(F)(F)O4)c3ncccc3Cl)n2)NC(=O)[C@@H]2C[C@@H](O)CN2C(=O)[C@@H](NC(=O)C2(F)CC2)C(C)(C)C)cc1
- Activity [10]: Active; Reduced Potency In Molm-13 Cells Relative To Mv4-11 Cells Observed
- Activity [11]: Non-toxic

— ChEMBL document CHEMBL6182889, “Discovery of the first-in-class DOT1L PROTAC degrader” (Eur J Med Chem, 2025)
